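Assay format: 96-well plates, 48-hour exposure. GI50 = concentration required for 50% inhibition of growth.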 Active and inactive are the calls of the source. Rule as the data show it: active = GI50 up to about 1.1 µM and inactive = higher.
What was measured:
Experiment in all cases: DTP human tumour cell line panel, 48 h
KM12 = system: KM12
SF-268 = system: SF-268
MOLT-4 = system: MOLT-4
SF-539 = system: SF-539
SNB-75 = system: SNB-75
NCI-H460 = system: NCI-H460
HOP-62 = system: HOP-62
SW-620 = system: SW-620
UACC-62 = system: UACC-62
MDA-N = system: MDA-N
U-251 = system: U-251
DU-145 = system: DU-145
MDA-MB-231 = system: MDA-MB-231
NCI/ADR-RES = system: NCI/ADR-RES
NCI-H226 = system: NCI-H226
T47D = system: T47D
OVCAR-8 = system: OVCAR-8

Structure (SMILES) | GI50 (KM12) | GI50 (SF-268) | GI50 (MOLT-4) | GI50 (SF-539) | GI50 (SNB-75) | GI50 (NCI-H460) | GI50 (HOP-62) | GI50 (SW-620) | GI50 (UACC-62) | GI50 (MDA-N) | GI50 (U-251) | GI50 (DU-145) | GI50 (MDA-MB-231) | GI50 (NCI/ADR-RES) | GI50 (NCI-H226) | GI50 (T47D) | GI50 (OVCAR-8)
COc1cc(/C=N/c2nc3cc4sc(/N=C/c5cc(OC)c(OC)c(OC)c5)nc4cc3s2)cc(OC)c1OC | 52.1 µM (inactive) | 89.1 µM (inactive) | 31.3 µM (inactive) | 17.9 µM (inactive) | 75 µM (inactive) | 21.5 µM (inactive) | 57.1 µM (inactive) | 33.1 µM (inactive) | 67.1 µM (inactive) | 27 µM (inactive) | 46.1 µM (inactive) | > 100 µM (inactive) | 79.4 µM (inactive) | 34.1 µM (inactive) | 31.4 µM (inactive) | 51.1 µM (inactive) | 95.5 µM (inactive)
C/C=C(/C)C(=O)O[C@H]1C(C)=C[C@]23C(=O)[C@@H](C=C(COC(C)=O)[C@@H](O)[C@]12O)[C@H]1[C@@H](C[C@H]3C)[C@@]1(C)OC(=O)/C(C)=C\C | 1.32 µM (inactive) | 0.655 µM (active) | 0.0449 µM (active) | 2.81 µM (inactive) | 1.52 µM (inactive) | 0.0244 µM (active) | 2.37 µM (inactive) | 2.55 µM (inactive) | 2.37 µM (inactive) | 1.17 µM (inactive) | 2.45 µM (inactive) | 2.23 µM (inactive) | 3.03 µM (inactive) | 2.65 µM (inactive) | 3.07 µM (inactive) | 1.22 µM (inactive) | 3.72 µM (inactive)
CC(C)(C)c1cc(C(C)(C)C)c(SS(=O)(=O)O)c(O)c1O | 41.8 µM (inactive) | 13.4 µM (inactive) | < 0.01 µM (active) | 15.1 µM (inactive) | 34.5 µM (inactive) | 10.9 µM (inactive) | 54.6 µM (inactive) | 51.4 µM (inactive) | 21.5 µM (inactive) | 30.1 µM (inactive) | 27.2 µM (inactive) | 62.5 µM (inactive) | 52.7 µM (inactive) | 58.1 µM (inactive) | 40 µM (inactive) | 33.7 µM (inactive) | 44.9 µM (inactive)
NNC(=O)c1ccccc1Nc1ccccc1C(=O)NN | > 100 µM (inactive) | > 100 µM (inactive) | > 100 µM (inactive) | > 100 µM (inactive) | > 100 µM (inactive) | > 100 µM (inactive) | > 100 µM (inactive) | > 100 µM (inactive) | > 100 µM (inactive) | > 100 µM (inactive) | > 100 µM (inactive) | > 100 µM (inactive) | > 100 µM (inactive) | > 100 µM (inactive) | > 100 µM (inactive) | > 100 µM (inactive) | > 100 µM (inactive)
O=C(c1ccccc1)c1ccc2[nH]c(-c3c(Cl)c(Cl)c(Cl)c(Cl)c3-c3nnc(-c4ccccc4)o3)nc2c1 | 22.3 µM (inactive) | 31.4 µM (inactive) | 14.8 µM (inactive) | 19.4 µM (inactive) | 8.81 µM (inactive) |  | 25.8 µM (inactive) | 29.7 µM (inactive) |  | 3.45 µM (inactive) | 31.6 µM (inactive) | 70.5 µM (inactive) | 25.4 µM (inactive) | 13.2 µM (inactive) | 22.8 µM (inactive) | 23.9 µM (inactive) | 58.1 µM (inactive)
CCN(CC)CC1CN=C(N)O1 (centres undefined) | > 100 µM (inactive) |  | > 100 µM (inactive) | > 100 µM (inactive) | > 100 µM (inactive) | > 100 µM (inactive) | > 100 µM (inactive) | > 100 µM (inactive) | > 100 µM (inactive) | > 100 µM (inactive) | > 100 µM (inactive) | > 100 µM (inactive) | > 100 µM (inactive) | > 100 µM (inactive) | > 100 µM (inactive) | > 100 µM (inactive) | > 100 µM (inactive)
Ic1cccc(/C=C/CN2CCN(CCOC(c3ccccc3)c3ccccc3)CC2)c1 | 14.9 µM (inactive) | 27.2 µM (inactive) | 5.32 µM (inactive) | 17.3 µM (inactive) | 11.5 µM (inactive) | 11.3 µM (inactive) | 17 µM (inactive) | 26.7 µM (inactive) | 18.6 µM (inactive) | 17.9 µM (inactive) | 13.6 µM (inactive) | 13.2 µM (inactive) | 14 µM (inactive) | 16 µM (inactive) | 17.1 µM (inactive) | 10.6 µM (inactive) | 16 µM (inactive)
OC1C2[C@@H](O)CCCN2C[C@@H](O)[C@H]1O (some centres undefined) | > 100 µM (inactive) | > 100 µM (inactive) | > 100 µM (inactive) | > 100 µM (inactive) | > 100 µM (inactive) | > 100 µM (inactive) | > 100 µM (inactive) | > 100 µM (inactive) | > 100 µM (inactive) | > 100 µM (inactive) | > 100 µM (inactive) | > 100 µM (inactive) | > 100 µM (inactive) | > 100 µM (inactive) | > 100 µM (inactive) | > 100 µM (inactive) | > 100 µM (inactive)
CC1(C)CC(=O)c2c(nc3ccc4ccccc4c3c2-c2ccc(NC(=O)CCCCC(=O)Nc3ccc(-c4c5c(nc6ccc7ccccc7c46)CC(C)(C)CC5=O)cc3)cc2)C1 | > 100 µM (inactive) | > 100 µM (inactive) | > 100 µM (inactive) | > 100 µM (inactive) | > 100 µM (inactive) | > 100 µM (inactive) | > 100 µM (inactive) | > 100 µM (inactive) | > 100 µM (inactive) | > 100 µM (inactive) | > 100 µM (inactive) | > 100 µM (inactive) | > 100 µM (inactive) | > 100 µM (inactive) | > 100 µM (inactive) | > 100 µM (inactive) | > 100 µM (inactive)
CC(C)[Si](OC12CCC(CC1O)CC2C(=O)O)(C(C)C)C(C)C (centres undefined) | 12.4 µM (inactive) | 12.7 µM (inactive) | 13.2 µM (inactive) | 27.4 µM (inactive) | 6.1 µM (inactive) | 7.76 µM (inactive) | 14.4 µM (inactive) | 14.9 µM (inactive) | 14 µM (inactive) | 17 µM (inactive) | 14.6 µM (inactive) | 14.2 µM (inactive) | 14.7 µM (inactive) | 13.2 µM (inactive) | 12 µM (inactive) | 13.9 µM (inactive) | 16.1 µM (inactive)
COC(=O)[C@]1(c2cc3ccccc3n2S(=O)(=O)c2ccccc2)CC2CCC1NC2 (some centres undefined) | 15.1 µM (inactive) | 16.8 µM (inactive) |  | 16.4 µM (inactive) | 12.7 µM (inactive) | 14 µM (inactive) | 18 µM (inactive) | 14.5 µM (inactive) | 14.5 µM (inactive) | 14.7 µM (inactive) | 13.6 µM (inactive) | 16.1 µM (inactive) | 14.1 µM (inactive) | 16.6 µM (inactive) | 14.6 µM (inactive) | 12.2 µM (inactive) | 14.9 µM (inactive)
NC1=CN(CCCO)C2=N/C(=C\c3ccco3)C(=O)N12 | > 100 µM (inactive) | > 100 µM (inactive) | > 100 µM (inactive) | > 100 µM (inactive) | > 100 µM (inactive) | > 100 µM (inactive) | > 100 µM (inactive) | > 100 µM (inactive) | > 100 µM (inactive) | > 100 µM (inactive) | > 100 µM (inactive) | > 100 µM (inactive) | > 100 µM (inactive) | > 100 µM (inactive) | > 100 µM (inactive) | > 100 µM (inactive) | > 100 µM (inactive)
CN1CCC2(c3ccccc3)CC(=O)/C(=C/c3ccc(Cl)c(Cl)c3)C1C2.[O-][Cl+3]([O-])([O-])O (centres undefined) | 1.94 µM (inactive) | 1.86 µM (inactive) | 2.6 µM (inactive) | 1.98 µM (inactive) | 3.41 µM (inactive) | 2.35 µM (inactive) | 3.37 µM (inactive) | 2.59 µM (inactive) | 1.51 µM (inactive) | 4.42 µM (inactive) | 1.82 µM (inactive) | 3.25 µM (inactive) | 1.69 µM (inactive) | 2.78 µM (inactive) | 2.09 µM (inactive) | 4.7 µM (inactive) | 2.21 µM (inactive)
CC(=O)c1c(O)c(C)c(O)c(Cc2c(O)c3c(c(C(=O)/C=C/c4ccccc4)c2O)OC(C)(C)C=C3)c1O [ROTTLERIN] | 2.81 µM (inactive) | 3.61 µM (inactive) | 1.89 µM (inactive) | 2.99 µM (inactive) | 1.27 µM (inactive) | 2.94 µM (inactive) |  | 3.19 µM (inactive) | 2.95 µM (inactive) | 3.14 µM (inactive) | 2.31 µM (inactive) | 3.49 µM (inactive) | 2.08 µM (inactive) | 2.53 µM (inactive) | 3.45 µM (inactive) | 1.85 µM (inactive) | 3.08 µM (inactive)
Cl.O=C(O)c1cccnc1 | > 100 µM (inactive) | > 100 µM (inactive) | > 100 µM (inactive) | 34.8 µM (inactive) | > 100 µM (inactive) | > 100 µM (inactive) | > 100 µM (inactive) | > 100 µM (inactive) |  | > 100 µM (inactive) | > 100 µM (inactive) | > 100 µM (inactive) | > 100 µM (inactive) | > 100 µM (inactive) | > 100 µM (inactive) | > 100 µM (inactive) | > 100 µM (inactive)
CC1=CC(=O)/C(=C/NC(=S)NCCc2ccccc2)C(=O)O1 | > 100 µM (inactive) |  | > 100 µM (inactive) | > 100 µM (inactive) | 75 µM (inactive) | > 100 µM (inactive) | > 100 µM (inactive) | > 100 µM (inactive) |  | > 100 µM (inactive) | > 100 µM (inactive) | > 100 µM (inactive) | > 100 µM (inactive) | > 100 µM (inactive) | > 100 µM (inactive) | > 100 µM (inactive) | > 100 µM (inactive)

From ChEMBL document CHEMBL1201862, “PubChem BioAssay data set” (2004)
